From ChEMBL document CHEMBL1201862, “PubChem BioAssay data set” (2004)
The source made the active and inactive calls. Rule as the data show it, for most assays here: actives have a measured EC50 and inactives only a lower limit.

Assays:
[1] = Trypanosoma cruzi growth suppression in host cells – NIH3T3 host cells, beta-gal luminescence, confirmation (AID 2044); format: functional, cell-based;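 also: intracellular parasites grown in NIH/3T3 mouse fibroblasts as host cells; luminescent beta-galactosidase reporter signal from transgenic T. cruzi replicating inside host cells; inhibitors lower the luminescence signal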
[2] = NIH3T3 cell viability loss – ATP luminescence, mouse fibroblasts, counter-screen, dose response (AID 2010); format: functional, cell-based;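 also: cells exposed to compound for about 90 hours before reading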
[3] = molecular target: T1, Cytochrome P450 1A2 (Homo sapiens, UniProt P05177);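 also: PubChem cytochrome P450 panel assay, CYP1A2 panel member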
T1 sequence (P05177 whole entry): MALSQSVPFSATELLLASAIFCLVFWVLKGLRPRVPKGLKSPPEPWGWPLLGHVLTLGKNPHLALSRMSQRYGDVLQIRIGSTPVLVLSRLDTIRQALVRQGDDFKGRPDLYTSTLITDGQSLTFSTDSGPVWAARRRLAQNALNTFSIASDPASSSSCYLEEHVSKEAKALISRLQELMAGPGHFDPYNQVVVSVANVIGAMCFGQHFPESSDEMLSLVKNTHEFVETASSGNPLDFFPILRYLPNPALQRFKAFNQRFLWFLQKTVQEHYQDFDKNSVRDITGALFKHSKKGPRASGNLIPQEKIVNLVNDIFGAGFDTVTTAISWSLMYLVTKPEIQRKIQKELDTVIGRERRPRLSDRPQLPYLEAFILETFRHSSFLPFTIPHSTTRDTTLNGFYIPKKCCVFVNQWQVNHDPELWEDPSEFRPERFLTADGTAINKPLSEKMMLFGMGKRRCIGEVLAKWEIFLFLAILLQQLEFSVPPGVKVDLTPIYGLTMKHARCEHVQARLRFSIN

[4] = molecular target: T2, Replicative DNA helicase DnaB (Mycobacterium tuberculosis, UniProt P9WMR3); assay: DnaB intein splicing inhibitors, dose response, biochemical, cell-free fluorescence (AID 449749); format: functional
T2 sequence (P9WMR3 whole entry): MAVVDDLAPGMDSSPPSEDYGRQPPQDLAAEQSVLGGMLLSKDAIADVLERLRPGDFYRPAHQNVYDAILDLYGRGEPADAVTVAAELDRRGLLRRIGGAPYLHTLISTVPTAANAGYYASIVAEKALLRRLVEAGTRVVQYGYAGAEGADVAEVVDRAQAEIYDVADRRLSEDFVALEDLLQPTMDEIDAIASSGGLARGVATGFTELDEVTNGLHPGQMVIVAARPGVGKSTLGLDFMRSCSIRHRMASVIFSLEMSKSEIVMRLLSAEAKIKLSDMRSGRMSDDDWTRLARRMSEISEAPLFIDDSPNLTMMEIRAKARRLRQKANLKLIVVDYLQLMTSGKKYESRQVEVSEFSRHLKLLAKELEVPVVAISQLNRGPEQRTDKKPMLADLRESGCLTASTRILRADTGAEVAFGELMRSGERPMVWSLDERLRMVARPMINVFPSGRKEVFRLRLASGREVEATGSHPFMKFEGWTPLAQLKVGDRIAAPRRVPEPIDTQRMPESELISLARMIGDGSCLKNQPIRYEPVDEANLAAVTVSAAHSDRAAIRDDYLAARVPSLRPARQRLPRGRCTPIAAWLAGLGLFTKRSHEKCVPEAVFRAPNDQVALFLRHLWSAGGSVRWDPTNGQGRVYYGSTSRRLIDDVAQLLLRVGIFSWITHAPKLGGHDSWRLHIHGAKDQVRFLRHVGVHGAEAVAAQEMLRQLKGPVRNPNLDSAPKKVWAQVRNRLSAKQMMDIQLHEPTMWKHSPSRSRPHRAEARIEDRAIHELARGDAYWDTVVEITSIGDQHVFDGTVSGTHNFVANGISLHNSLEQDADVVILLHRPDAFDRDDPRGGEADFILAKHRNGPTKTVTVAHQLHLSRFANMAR

[5] = molecular target: T3, Protein RecA (Mycobacterium tuberculosis, UniProt P9WHJ3); assay: Fluorescence Cell-Free Homogeneous Dose Retest to Identify Inhibitors of RecA-Intein Splicing Activity. [Related pubchem assays (depositor defined):AID2097, AID2223, AID489010, AID492950]; format: functional
T3 sequence (P9WHJ3 whole entry): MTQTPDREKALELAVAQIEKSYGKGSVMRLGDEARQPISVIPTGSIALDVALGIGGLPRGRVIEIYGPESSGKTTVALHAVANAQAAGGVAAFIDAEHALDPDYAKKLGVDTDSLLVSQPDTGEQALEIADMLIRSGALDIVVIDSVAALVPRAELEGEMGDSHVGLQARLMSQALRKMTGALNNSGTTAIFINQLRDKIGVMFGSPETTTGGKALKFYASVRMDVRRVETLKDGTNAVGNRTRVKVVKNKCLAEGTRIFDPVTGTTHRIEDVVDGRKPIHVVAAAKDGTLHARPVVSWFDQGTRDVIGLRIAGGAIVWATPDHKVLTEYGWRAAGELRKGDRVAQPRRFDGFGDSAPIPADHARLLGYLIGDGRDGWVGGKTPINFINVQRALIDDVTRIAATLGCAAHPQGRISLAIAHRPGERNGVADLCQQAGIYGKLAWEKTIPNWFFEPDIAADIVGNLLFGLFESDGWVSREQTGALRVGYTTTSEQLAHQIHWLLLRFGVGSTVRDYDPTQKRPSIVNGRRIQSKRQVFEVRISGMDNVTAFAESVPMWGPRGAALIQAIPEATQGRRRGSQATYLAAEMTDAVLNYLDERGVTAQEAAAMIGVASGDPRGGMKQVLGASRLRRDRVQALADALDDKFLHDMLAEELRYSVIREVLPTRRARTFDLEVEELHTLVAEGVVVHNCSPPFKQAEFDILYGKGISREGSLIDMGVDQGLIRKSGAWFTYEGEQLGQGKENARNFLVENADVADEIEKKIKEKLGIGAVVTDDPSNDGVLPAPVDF

[6] = system: Streptococcus sp. 'group A'; assay: Streptococcus pyogenes SK(-)GAS viability under kanamycin – luminescence, BacTiterGlo, confirmation, counter-screen for streptokinase expression inhibitor project, dose response (AID 1900); format: functional, organism-based
[7] = system: Streptococcus; assay: GAS UMAA2166 growth inhibition – luminescence, BacTiterGlo, counter-screen for streptokinase expression inhibitor project, dose response (AID 1915); format: functional, organism-based;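 also: potency for reduction of bacterial viability or growth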

Structure (SMILES) | EC50 [1] | EC50 [2] | AC50 [4] | EC50 [5] | also measured
Cc1ccc(NP(=O)(c2ccc(N(C)C)cc2NC(=O)c2cccs2)N2CCOCC2)cc1Cl (centres undefined) | 1.9 µM (active) | > 30 µM (not active) |  |  | 
O=C(COC(=O)c1c2c(nc3ccccc13)/C(=C\c1cccs1)CCC2)Nc1ccccc1Cl | 1.73 µM (active) | > 60 µM (not active) |  |  | 
COc1ccc(-n2c(=O)c(-c3cn(C)c4ccccc34)nc3cnc(N4CCOCC4)nc32)cc1 |  |  |  |  | AC50 [3]: 31.6 µM (inconclusive)
O=C(C1=C[C@H](c2ccc(Br)cc2)C[C@H](OCCCCO)O1)N1CCN(Cc2ccccc2)CC1 | 0.874 µM (active) | > 60 µM (not active) |  |  | 
C[C@@H](C(=O)NCc1ccccn1)[C@@H]1C[C@@]1(C)[C@@H](NC(=O)OCc1ccccc1)c1ccccc1 |  |  |  |  | AC50 [3]: 20 µM (inconclusive)
O=S(=O)(c1ccccc1)N1CCC[C@@]2(CCN(c3cccc(-c4ccccc4)c3)C2)C1 |  |  |  |  | AC50 [3]: 15.8 µM (inconclusive)
O=C(NC1CCCCCC1)c1cccnc1S | 8.39 µM (active) | > 60 µM (inconclusive) |  |  | 
Clc1ccc(N2CCCCCC2)nn1 |  |  |  |  | AC50 [3]: 15.8 µM (inconclusive)
N#C/C(=C/c1ccncc1)c1nc2ccccc2s1 |  |  | > 120 µM (inactive) | 1.67 µM (active) | 
CCOC(=O)c1ccc(-n2ccnc2)c(NC(=O)c2cccc(Br)c2)c1 | 0.281 µM (active) | > 60 µM (not active) |  |  | 
Cc1nn(C)cc1CN1CCCC(C(=O)c2ccc(-c3ccccc3)cc2)C1 (centres undefined) | 0.123 µM (active) | > 60 µM (not active) |  |  | 
Cc1sc(NC(=O)CSC2=NCCS2)nc1-c1ccccc1 |  |  | 12.7 µM (active) | 4.25 µM (active) | 
COc1ccc(Cl)cc1N=C(S)NCCC(c1ccccc1)c1ccccc1 | 1.44 µM (active) | > 60 µM (not active) |  |  | 
N#CC1=C(N)C(C#N)(C#N)[C@H](c2c(F)cccc2F)[C@H]2CC3(CC=C12)OCCO3 |  |  | > 380 µM (inactive) | 22.2 µM (active) | 
Cc1noc(C)c1-c1cncnc1Nc1ccccc1 |  |  |  |  | AC50 [3]: 25.1 µM (inconclusive)
Cc1ccc(CNC(=O)CCC2CCCN(Cc3ccc4cccc(F)c4n3)C2)o1 (centres undefined) | 0.791 µM (active) | > 60 µM (not active) |  |  | 
COC(=O)C1=NN(C(C)=O)C2(CC(=O)N(c3cc(C)cc(C)c3)C2=O)C1 (centres undefined) |  |  | > 380 µM (inactive) | > 380 µM (inactive) | 
N#CC1=C(N)Oc2[nH]nc(-c3cccs3)c2C1c1ccco1 (centres undefined) |  |  | 8.22 µM (active) | 7.2 µM (active) | 
Cc1nc(-c2ccccn2)nc(SCC(=O)c2ccccc2)c1Cl |  |  |  |  | EC50 [6]: 3.92 µM (active); EC50 [7]: 11.4 µM (active)

Structure (SMILES) | EC50 [1] | EC50 [2] | AC50 [4] | EC50 [5] | also measured
COc1ccc(C)cc1NC(=O)CN1CCN(S(=O)(=O)c2ccc(C(C)C)cc2)CC1 | 1.79 µM (active) | > 30 µM (not active) |  |  | 
Cc1nc2ccccc2c2c1C(=O)N(Cc1cccnc1)C2=O |  |  | 32.8 µM (active) | 1.02 µM (active) | 
CCCOc1ccc(C(=O)NNC(=S)NC(=O)c2cc(-c3ccccc3)nc3ccccc23)cc1 |  |  |  |  | AC50 [3]: 17.8 µM (inconclusive)
CS(=O)(=O)N1CCC(Oc2ccccc2C(=O)N2CCCCC2CO)CC1 (centres undefined) |  |  | > 380 µM (inactive) | > 380 µM (inactive) | 
O=[N+]([O-])c1ccc(S(=O)(=O)N2CCN(c3ccnc4cc(Cl)ccc34)CC2)cc1 | 0.581 µM (active) | > 60 µM (not active) |  |  | 
C=C(C)COc1ccc(-c2nc(N)nc(C(F)(F)F)c2-c2ccc(OC)cc2)c(O)c1 | 2 µM (active) | > 60 µM (not active) |  |  | 
CC(C)c1ccccc1OCC(O)CN1CCN(S(=O)(=O)c2ccc([N+](=O)[O-])cc2)CC1 (centres undefined) | 0.409 µM (active) | > 60 µM (not active) |  |  | 
COc1ccc(NC(=O)c2cccc(N3C(=O)C4C5C=CC(C5)C4C3=O)c2)cc1Cl (centres undefined) |  |  | > 380 µM (inactive) | 18.5 µM (active) | 
CC(C)(C)c1ccc(C(=O)Cn2cnnc2C#N)cc1 |  |  | 48.9 µM (active) | 20 µM (active) | 
COc1ccc(C2C(C#N)=C(N)Oc3c2c(C)nn3-c2ccccc2)cc1Cn1nc(C)c([N+](=O)[O-])c1C (centres undefined) |  |  | 2.95 µM (active) | 10.5 µM (active) | 
COCc1n[nH]c2c1C(c1cccc(OC)c1)C(C#N)=C(N)O2 (centres undefined) |  |  | 40 µM (active) | 27 µM (active) | 
Clc1ccccc1-c1ncc2ccccn12 | 2.45 µM (active) | > 60 µM (not active) |  |  | 
Cc1onc(-c2ccc(Cl)cc2Cl)c1-c1csc(N/N=C/c2ccccc2Cl)n1 | 2.08 µM (active) | 13.9 µM (active) |  |  | 
C/C(CC(=O)Nc1cc(C)ccn1)=N\NC(=O)c1ccc(C)cc1 |  |  | 24.4 µM (active) | 8.13 µM (active) | 
CC(=O)/N=c1\sc2c3ccccc3ccc2n1C | 0.643 µM (active) | > 30 µM (not active) |  |  | 
c1ccc2sc(C3CCNCC3)nc2c1 | 2.58 µM (active) | > 60 µM (not active) |  |  | 
Cc1c(-c2ccccc2)oc2c(C(=O)OCCN3CCCCC3)cccc2c1=O [FLAVOXATE] |  |  |  |  | AC50 [3]: 6.31 µM (inconclusive)
COc1c(N2CCNC(C)C2)c(F)cc2c(=O)c(C(=O)O)cn(C3CC3)c12 (centres undefined) [GATIFLOXACIN] |  |  |  |  | EC50 [6]: 0.66 µM (active); EC50 [7]: 1.09 µM (active)
CC(C)=CCc1cc([C@@H]2CC(=O)c3ccc(O)c(CC=C(C)C)c3O2)ccc1O [GLABROL] |  |  |  |  | EC50 [6]: 6.4 µM (active); EC50 [7]: 5.43 µM (active)
